{
  "source": "patent US20240374879A1",
  "about": "“METHODS AND COMPOSITIONS TO REDUCE CELLULAR DEPOSITION, AND HYDROCEPHALUS SHUNT FAILURE” (Wayne State University, priority 2021, published 2024)",
  "key": {"TLR-4": {"molecular_target": "T1, TLR-4 (Mus musculus, UniProt Q9QUK6)", "T1 sequence (Q9QUK6 26-835)": "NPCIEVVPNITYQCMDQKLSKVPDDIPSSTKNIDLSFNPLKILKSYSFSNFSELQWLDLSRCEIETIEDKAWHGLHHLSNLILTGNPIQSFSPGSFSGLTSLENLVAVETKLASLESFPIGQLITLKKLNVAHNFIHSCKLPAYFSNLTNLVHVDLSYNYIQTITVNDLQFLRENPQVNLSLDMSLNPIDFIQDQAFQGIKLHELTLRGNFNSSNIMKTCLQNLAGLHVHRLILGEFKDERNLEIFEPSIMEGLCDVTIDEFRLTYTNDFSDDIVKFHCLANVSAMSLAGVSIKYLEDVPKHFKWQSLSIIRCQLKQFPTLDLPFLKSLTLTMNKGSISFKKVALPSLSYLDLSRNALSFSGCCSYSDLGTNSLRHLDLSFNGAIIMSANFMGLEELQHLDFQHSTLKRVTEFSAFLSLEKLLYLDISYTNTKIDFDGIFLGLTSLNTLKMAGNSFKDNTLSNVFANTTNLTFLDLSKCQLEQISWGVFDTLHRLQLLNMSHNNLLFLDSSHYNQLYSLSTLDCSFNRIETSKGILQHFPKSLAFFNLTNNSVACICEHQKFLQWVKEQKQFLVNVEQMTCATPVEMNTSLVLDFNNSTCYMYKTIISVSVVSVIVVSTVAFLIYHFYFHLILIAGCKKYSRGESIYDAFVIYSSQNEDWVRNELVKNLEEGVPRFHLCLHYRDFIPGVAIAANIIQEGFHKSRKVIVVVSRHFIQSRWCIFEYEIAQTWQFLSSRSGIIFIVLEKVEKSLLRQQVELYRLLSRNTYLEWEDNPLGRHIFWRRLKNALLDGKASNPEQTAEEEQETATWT", "conditions": "50 mg/kg; four hours post-treatment; cited from earlier work"}, "Human astrocyte cells": {"tested_on": "Human astrocyte cells", "assay": "Delivery Method: immunofluorescence (DAPI, GFAP) of astrocytes, GIT 27 attached to PDMS or in suspension", "type": "cell-based", "description": "Delivery Method: Following the nanodrop experiment, it was determined that the minimum concentration necessary to attach GIT 27 to the surface of the PDMS was 1000 μg/mL to display any attachment and release from the catheter. […] Using this concentration for sufficient surface coating, human astrocyte cells were cultured onto PDMS discs coated with GIT 27. Samples were also tested by adding GIT 27 at various concentrations in suspension within the cell culture media. Attached GIT 27 samples were conducted at concentrations 1000 and 3000 μg/mL, and for the in suspension concentrations 5, 50, and 1000 μg/mL in astrocyte media were used.\nImmunofluorescence was performed using glial fibrillary acidic protein (GFAP) and 4′,6-diamidino-2-phenylindole (DAPI) solution (ThermoFisher). GFAP primary and secondaries were diluted to a ratio of 1:1000 and 5:1000, respectfully, in 0.4% Triton-X in PBS (w/v). Samples were incubated for 24 hours in each solution. After rinsing the samples with PBS, the samples were incubated in a 1:1000 DAPI solution in 0.4% Triton X solution for 30 minutes. Samples were then imaged submerged in PBS using a confocal microscope at 20× magnification and analyzed using Imaris software."}, "[1]": {"conditions": "1000 μg/mL GIT 27 in suspension, qualitative"}},
  "data": [
    {"smiles": "O=C(O)CC1CC(c2ccccc2)=NO1", "note": "(stereo not shown) [GIT 27, 4,5-Dihydro-3-phenyl-5-isoxazoleacetic acid]", "values": [
      {"measurement": "edema", "setting": "TLR-4", "value": "significantly reduced"},
      {"measurement": "astrocyte cell bodies (GFAP) labeling compared to all other groups", "setting": "Human astrocyte cells; [1]", "value": "lowest amount"},
      {"measurement": "immunofluorescent total cell count (DAPI) labeling compared to all other groups", "setting": "Human astrocyte cells; [1]", "value": "lowest amount"},
      {"measurement": "GFAP levels compared to controls with no GIT 27 exposure", "setting": "Human astrocyte cells; plasma etched samples with GIT 27 attached to the surface", "value": "increased levels"}
    ]}
  ]
}
